The values below come from patent publication US8178658B2 (Dow AgroSciences, LLC, priority 2008, dated 2012).

A value given as a limit tells only on which side of the number the result lay.

Assay [1] relates to beet armyworm (BAW; Spodoptera exigua: Lepidoptera). Description: 128-well diet tray assay on beet armyworm (BAW 50). It counts as in vivo. Conditions: for BAW 50 ug/cm2: 128-well diet tray assay, 50 μg/cm^2 of test compound on diet, second instar BAW larvae, mortality class; for pest or weed control at 50 µg/cm2, 50 µg/cm2: Spodoptera exigua, 144 h, read-out: BAW 50 ug/cm2. The gist of the method:
(§1)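 In the HTS format, eggs were placed on diet surface-treated with 12 μg compound per well, held dark at 29° C, and scored for mortality at 6 d (mean of six replicates). The tray format used three to five second instar larvae on diet treated at 50 μg/cm^2, 25° C, 14:10 light-dark, six days, averaged over eight wells.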

For assay [2] the test system is unchanged. Description: 96-well microtiter plate-based high throughput (HTS) diet bioassay on beet armyworm (BAW HTS). Type of assay: in vivo. The settings on record: for BAW HTS: 96-well microtiter plate HTS diet assay, 12 μg test compound per well, BAW eggs, mortality at 6 d post-treatment, mortality class; for pest or weed control at 12 µg/well, 12 µg/well: Spodoptera exigua, 144 h, read-out: BAW HTS. A digest of the protocol:
as §1

On to `CCCO[C@@H]1[C@@H](OC)[C@H](C)O[C@@H](OC(=O)N(CC)c2ccc(-c3ncn(-c4ccc(OC(F)(F)C(F)(F)F)cc4)n3)cc2)[C@@H]1OC` [Compound 253, ethyl {4-[1-(4-pentafluoroethoxy-phenyl)-1H-[1,2,4]triazol-3-yl]-phenyl}-carbamic acid (2S,3R,4R,5S,6S)-4-propoxy-3,5-dimethoxy-6-methyl-tetrahydropyran-2-yl ester], for which, in assay [1], the “BAW 50 ug/cm2” value is “A (the compound was tested and at least 50 percent mortality was observed)”; the pest or weed control at 50 µg/cm2, 50 µg/cm2 was more than 50%. In assay [2], the “BAW HTS” value was “A (the compound was tested and at least 50 percent mortality was observed)”; the pest or weed control at 12 µg/well, 12 µg/well was more than 50%.
In the case of `CCO[C@@H]1[C@@H](OC)[C@H](C)O[C@@H](OC(=O)N(COC)c2ccc(-c3ncn(-c4ccc(OC(F)(F)F)cc4)n3)cc2)[C@@H]1OC` [Compound 254, methoxymethyl {4-[1-(4-trifluoromethoxyphenyl)-1H-[1,2,4]triazol-3-yl]-phenyl}-carbamic acid (2S,3R,4R,5S,6S)-4-ethoxy-3,5-dimethoxy-6-methyl-tetrahydropyran-2-yl ester], in assay [1], the “BAW 50 ug/cm2” value is “A (the compound was tested and at least 50 percent mortality was observed)”; the pest or weed control at 50 µg/cm2, 50 µg/cm2 is more than 50%. In assay [2], the “BAW HTS” value is “A (the compound was tested and at least 50 percent mortality was observed)”; the pest or weed control at 12 µg/well, 12 µg/well is more than 50%.
Turning to `CCO[C@@H]1[C@@H](OC)[C@H](C)O[C@@H](OC(=O)N(COC)c2ccc(-c3ncn(-c4ccc(OC(F)(F)C(F)(F)F)cc4)n3)cc2)[C@@H]1OC` [Compound 255, methoxymethyl {4-[1-(4-pentafluoroethoxyphenyl)-1H-[1,2,4]triazol-3-yl]-phenyl}-carbamic acid (2S,3R,4R,5S,6S)-4-ethoxy-3,5-dimethoxy-6-methyl-tetrahydropyran-2-yl ester], in assay [1], the “BAW 50 ug/cm2” value was “A (the compound was tested and at least 50 percent mortality was observed)”; the pest or weed control at 50 µg/cm2, 50 µg/cm2 is more than 50%. Further, in assay [2], the “BAW HTS” value is “B (either (1) the compound was tested and less than 50 percent mortality was observed or (2) the compound was not tested)”; the pest or weed control at 12 µg/well, 12 µg/well was less than 50%.
For the compound `C=CCN(C(=O)O[C@@H]1O[C@@H](C)[C@H](OC)[C@@H](OCC)[C@H]1OC)c1ccc(-c2ncn(-c3ccc(OC(F)(F)C(F)(F)F)cc3)n2)cc1` [Compound 256, allyl {4-[1-(4-pentafluoroethoxy-phenyl)-1H-[1,2,4]triazol-3-yl]-phenyl}-carbamic acid (2S,3R,4R,5S,6S)-4-ethoxy-3,5-dimethoxy-6-methyl-tetrahydropyran-2-yl ester], in assay [1], the “BAW 50 ug/cm2” value is “A (the compound was tested and at least 50 percent mortality was observed)”; the pest or weed control at 50 µg/cm2, 50 µg/cm2 is more than 50%. In addition, in assay [2], the “BAW HTS” value was “A (the compound was tested and at least 50 percent mortality was observed)”; the pest or weed control at 12 µg/well, 12 µg/well is more than 50%.
Consider `CCCO[C@@H]1[C@@H](OC)[C@H](C)O[C@@H](OC(=O)N(CO)c2ccc(-c3ncn(-c4ccc(OC(F)(F)C(F)(F)F)cc4)n3)cc2)[C@@H]1OC` [Compound 257, hydroxymethyl {4-[1-(4-pentafluoroethoxy-phenyl)-1H-[1,2,4]triazol-3-yl]-phenyl}-carbamic acid (2S,3R,4R,5S,6S)-4-propoxy-3,5-dimethoxy-6-methyl-tetrahydropyran-2-yl ester], for which, in assay [1], the “BAW 50 ug/cm2” value was “A (the compound was tested and at least 50 percent mortality was observed)”; the pest or weed control at 50 µg/cm2, 50 µg/cm2 was more than 50%. For the same compound, in assay [2], the “BAW HTS” value was “B (either (1) the compound was tested and less than 50 percent mortality was observed or (2) the compound was not tested)”; the pest or weed control at 12 µg/well, 12 µg/well was less than 50%.
Consider `CCO[C@@H]1[C@@H](OC)[C@H](C)O[C@@H](OC(=O)N(C(C)=O)c2ccc(-c3ncn(-c4ccc(OC(F)(F)C(F)(F)F)cc4)n3)cc2)[C@@H]1OC` [Compound 258, acetyl {4-[1-(4-pentafluoroethoxyphenyl)-1H-[1,2,4]triazol-3-yl]-phenyl}-carbamic acid (2S,3R,4R,5S,6S)-4-ethoxy-3,5-dimethoxy-6-methyl-tetrahydropyran-2-yl ester], for which, in assay [1], the “BAW 50 ug/cm2” value was “A (the compound was tested and at least 50 percent mortality was observed)”; the pest or weed control at 50 µg/cm2, 50 µg/cm2 is more than 50%. Besides, in assay [2], the “BAW HTS” value is “A (the compound was tested and at least 50 percent mortality was observed)”; the pest or weed control at 12 µg/well, 12 µg/well was more than 50%.
`CCO[C@@H]1[C@@H](OC)[C@H](C)O[C@@H](OC(=O)N(C(=O)CCC(=O)OC)c2ccc(-c3ncn(-c4ccc(OC(F)(F)C(F)(F)F)cc4)n3)cc2)[C@@H]1OC` [Compound 259, 4-(((2S,3R,4R,5S,6S)-4-ethoxy-3,5-dimethoxy-6-methyl-tetrahydropyran-2-yloxycarbonyl)-{4-[1-(4-pentafluoroethoxy-phenyl)-1H-[1,2,4]triazol-3-yl]-phenyl}-amino)-4-oxo-butyric acid methyl ester]: in assay [1], the “BAW 50 ug/cm2” value was “A (the compound was tested and at least 50 percent mortality was observed)”; the pest or weed control at 50 µg/cm2, 50 µg/cm2 was more than 50%. For the same compound, in assay [2], the “BAW HTS” value was “B (either (1) the compound was tested and less than 50 percent mortality was observed or (2) the compound was not tested)”; the pest or weed control at 12 µg/well, 12 µg/well is less than 50%.
